The values below come from paper PMC8898348 (Journal of the Indian Chemical Society, 2022).

Read-outs that look alike come from different tables or passages of the source. Where a SMILES comes first, the peptide text is derived from it. The star is where a group is joined. MeOSuc = COC(=O)CCC(=O)*; CH2Cl = ClC*

For one test, the target named is Elastase (Sus scrofa, UniProt P00772). The experiment in a line: elastase inhibitory activity, spectrophotometric. Format: biochemical.
In a further test the target is Collagenase. The experiment in a line: collagenase enzyme inhibition, spectrophotometric. Format: biochemical. The conditions noted are these: read-out: Collagenase IC50.
For another test, the system named is SK-LU-1. The experiment in a line: MTT cytotoxicity assay, SK-LU-1. Format: cell-based. The conditions noted are these: Homo sapiens, SK-LU-1, read-out: SK-LU-1 IC50. For orientation: Tetrazolium assays rely on reduction of a dye to a coloured formazan, in cell work by metabolically active cells.
The next test concerns 95D. The test is described as follows: MTT cytotoxicity assay, 95D. In kind it is cell-based. The conditions noted are these: Homo sapiens, read-out: 95D IC50.
For test [1], the system named is SPC-A-1, SK-LU-1, and 95D human lung cancer cell lines. The test is described as follows: MTT cytotoxicity assay, three lung cancer cell lines together. Format: cell-based. The following applies: read-out: IC50 growth inhibition in the three lung cancer cells.

A word on the IC50: it is the concentration needed to halve the response being measured.

Elastase, sequence (P00772 27-266): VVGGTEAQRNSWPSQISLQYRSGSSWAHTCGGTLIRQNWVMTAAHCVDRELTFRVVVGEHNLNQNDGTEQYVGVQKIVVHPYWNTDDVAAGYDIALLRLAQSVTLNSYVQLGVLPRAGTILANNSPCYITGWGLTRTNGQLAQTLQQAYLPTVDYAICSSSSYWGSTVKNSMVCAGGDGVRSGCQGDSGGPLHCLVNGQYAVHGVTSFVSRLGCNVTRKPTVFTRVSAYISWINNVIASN

As for `COC(=O)CCC(=O)N[C@@H](C)C(=O)N[C@@H](C)C(=O)N1CCC[C@H]1C(=O)N[C@H](C(=O)CCl)C(C)C` [N-(Methoxysuccinyl)-Ala-Ala-Pro-Val-chloromethyl ketone, reference compound] (MeOSuc-AAPV-CH2Cl), on Elastase (read-out: Elastase IC50), the concentration for half-maximal inhibition (IC50) was found to be 30.6 ± 3.25 µM.

Regarding `O=C1OC[C@H](Cc2cccc(O)c2)[C@H]1Cc1cccc(O)c1` [Enterolactone], the IC50 on Collagenase was 9.66 ± 1.52 µM; against Elastase it was 22.5 ± 4.08 µM; in the test on SK-LU-1 it was 45.8 µM; with 95D it was 41.1 µM.

Regarding `COc1cccc2c1C(=O)c1c(O)c3c(c(O)c1C2=O)C[C@@](O)(C(=O)CO)C[C@@H]3O[C@H]1C[C@H](N)[C@H](O)[C@H](C)O1` [Doxorubicin, reference compound], the half-maximal inhibitory concentration (IC50) with SK-LU-1 was 25 µM; in the test on 95D it was 25 µM; in test [1], 25 to 30 µM.

As to `CC(C)C[C@H](NP(=O)(O)O[C@@H]1O[C@@H](C)[C@H](O)[C@@H](O)[C@H]1O)C(=O)N[C@@H](Cc1c[nH]c2ccccc12)C(=O)O` [Phosphoramidon, reference compound], the IC50 at Collagenase was found to be 101 ± 14.8 µM.

In the case of `COc1cc(O)c(C(=O)/C=C/c2ccc(O)cc2)c(OC)c1` [Flavokawain C], the IC50 on Collagenase is 62.1 ± 9.43 µM; at Elastase it was 17.6 ± 1.68 µM; in the test on SK-LU-1, 22.7 µM; with 95D, 21 µM; in test [1], 12 to 30 µM.

Consider `COc1cc(O)c(C(=O)/C=C/c2ccccc2)c(OC)c1` [Flavokawain B], for which the half-inhibitory concentration (IC50) on Collagenase was 71.1 ± 16 µM; at Elastase, 20.1 ± 2.36 µM; with SK-LU-1 it was 29.3 µM; in the test with 95D, 32.6 µM; in test [1], 12 to 30 µM.

On to `OC[C@H](Cc1cccc(O)c1)[C@H](CO)Cc1cccc(O)c1` [Enterodiol], for which the IC50 turned out to be 104 ± 11.3 µM at Collagenase, 11.1 ± 1.87 µM against Elastase, 67.3 µM in the test on SK-LU-1 and 64.1 µM in the test with 95D.

Turning to `COc1ccc(/C=C/C(=O)c2c(O)cc(OC)cc2OC)cc1` [Flavokawain A], the IC50 was 66.3 ± 7.95 µM at Collagenase; 27.3 ± 4.67 µM on Elastase; 23.3 µM in the test with SK-LU-1; 22.4 µM in the test on 95D; 12 to 30 µM in test [1].
